Where two headings read alike, the source gives them in different places. No end group written: not given here.
Key:
[1] = molecular target: KA receptors; conditions: native iGluR; values taken from reference 49; cited from earlier work
[2] = molecular target: NMDA receptors; conditions: native iGluR; values taken from reference 49; cited from earlier work
[3] = molecular target: AMPA receptors; conditions: native iGluR; values taken from reference 49; cited from earlier work
[4] = molecular target: GluK1 (UniProt P22756); assay: Radioligand binding at cloned homomeric GluK1; conditions: cloned homomeric subtype
Source text: (§1) Analog 2 was characterized pharmacologically in radio ligand binding assays at native iGluRs (rat synaptosomes) and cloned homomeric subtypes, GluK1-3 (Table 1).

[5] = molecular target: T1, GluK3 (Rattus norvegicus, UniProt P42264); assay: Radioligand binding at cloned homomeric GluK3; conditions: cloned homomeric subtype
T1 construct: expressed in transfected cells
T1 sequence (P42264 32-919): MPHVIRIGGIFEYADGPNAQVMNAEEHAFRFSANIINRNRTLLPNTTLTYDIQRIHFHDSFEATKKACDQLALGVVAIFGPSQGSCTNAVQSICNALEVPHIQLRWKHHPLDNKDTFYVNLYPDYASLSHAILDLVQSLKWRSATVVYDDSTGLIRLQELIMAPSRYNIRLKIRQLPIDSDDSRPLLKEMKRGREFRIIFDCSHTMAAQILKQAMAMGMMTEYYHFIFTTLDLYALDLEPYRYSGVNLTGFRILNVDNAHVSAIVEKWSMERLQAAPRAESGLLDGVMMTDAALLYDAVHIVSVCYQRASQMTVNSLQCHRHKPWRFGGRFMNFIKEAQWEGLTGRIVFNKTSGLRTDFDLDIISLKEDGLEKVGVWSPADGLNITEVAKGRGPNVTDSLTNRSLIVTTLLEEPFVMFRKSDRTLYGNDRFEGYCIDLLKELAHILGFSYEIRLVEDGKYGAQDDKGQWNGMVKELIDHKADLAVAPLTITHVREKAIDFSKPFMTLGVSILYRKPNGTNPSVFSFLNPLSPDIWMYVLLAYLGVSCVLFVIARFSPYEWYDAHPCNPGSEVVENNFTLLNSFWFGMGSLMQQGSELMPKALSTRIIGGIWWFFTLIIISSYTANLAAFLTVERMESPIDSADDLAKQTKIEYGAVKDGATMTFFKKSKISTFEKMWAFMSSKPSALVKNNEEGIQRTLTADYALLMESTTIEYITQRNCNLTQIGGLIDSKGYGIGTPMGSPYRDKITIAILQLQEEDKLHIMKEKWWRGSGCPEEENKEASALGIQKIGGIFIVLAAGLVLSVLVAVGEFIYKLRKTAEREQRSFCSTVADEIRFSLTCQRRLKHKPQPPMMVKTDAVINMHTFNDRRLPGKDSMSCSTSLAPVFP
Source text: as §1

[6] = test system: GluN1/GluN2A-D; assay: Functional assay for subtypes GluN1/GluN2A-D; type: biochemical
[7] = molecular target: KA receptors; assay: Radioligand binding at native KA receptors (rat synaptosomes); conditions: native iGluRs
Source text: as §1

[8] = molecular target: GluK2 (UniProt P42260); assay: Radioligand binding at cloned homomeric GluK2; conditions: cloned homomeric subtype
Source text: as §1

[9] = molecular target: AMPA receptors; assay: Radioligand binding at native AMPA receptors (rat synaptosomes); conditions: native iGluRs
Source text: as §1

[10] = molecular target: NMDA receptors; assay: Radioligand binding at native NMDA receptors (rat synaptosomes); conditions: native iGluRs
Source text: as §1

[11] = molecular target: GluN1/GluN2B (Homo sapiens, UniProt Q13224); conditions: cited from earlier work
Chain of GluN1/GluN2B (Q13224 27-1484, species assumed, other chains not shown): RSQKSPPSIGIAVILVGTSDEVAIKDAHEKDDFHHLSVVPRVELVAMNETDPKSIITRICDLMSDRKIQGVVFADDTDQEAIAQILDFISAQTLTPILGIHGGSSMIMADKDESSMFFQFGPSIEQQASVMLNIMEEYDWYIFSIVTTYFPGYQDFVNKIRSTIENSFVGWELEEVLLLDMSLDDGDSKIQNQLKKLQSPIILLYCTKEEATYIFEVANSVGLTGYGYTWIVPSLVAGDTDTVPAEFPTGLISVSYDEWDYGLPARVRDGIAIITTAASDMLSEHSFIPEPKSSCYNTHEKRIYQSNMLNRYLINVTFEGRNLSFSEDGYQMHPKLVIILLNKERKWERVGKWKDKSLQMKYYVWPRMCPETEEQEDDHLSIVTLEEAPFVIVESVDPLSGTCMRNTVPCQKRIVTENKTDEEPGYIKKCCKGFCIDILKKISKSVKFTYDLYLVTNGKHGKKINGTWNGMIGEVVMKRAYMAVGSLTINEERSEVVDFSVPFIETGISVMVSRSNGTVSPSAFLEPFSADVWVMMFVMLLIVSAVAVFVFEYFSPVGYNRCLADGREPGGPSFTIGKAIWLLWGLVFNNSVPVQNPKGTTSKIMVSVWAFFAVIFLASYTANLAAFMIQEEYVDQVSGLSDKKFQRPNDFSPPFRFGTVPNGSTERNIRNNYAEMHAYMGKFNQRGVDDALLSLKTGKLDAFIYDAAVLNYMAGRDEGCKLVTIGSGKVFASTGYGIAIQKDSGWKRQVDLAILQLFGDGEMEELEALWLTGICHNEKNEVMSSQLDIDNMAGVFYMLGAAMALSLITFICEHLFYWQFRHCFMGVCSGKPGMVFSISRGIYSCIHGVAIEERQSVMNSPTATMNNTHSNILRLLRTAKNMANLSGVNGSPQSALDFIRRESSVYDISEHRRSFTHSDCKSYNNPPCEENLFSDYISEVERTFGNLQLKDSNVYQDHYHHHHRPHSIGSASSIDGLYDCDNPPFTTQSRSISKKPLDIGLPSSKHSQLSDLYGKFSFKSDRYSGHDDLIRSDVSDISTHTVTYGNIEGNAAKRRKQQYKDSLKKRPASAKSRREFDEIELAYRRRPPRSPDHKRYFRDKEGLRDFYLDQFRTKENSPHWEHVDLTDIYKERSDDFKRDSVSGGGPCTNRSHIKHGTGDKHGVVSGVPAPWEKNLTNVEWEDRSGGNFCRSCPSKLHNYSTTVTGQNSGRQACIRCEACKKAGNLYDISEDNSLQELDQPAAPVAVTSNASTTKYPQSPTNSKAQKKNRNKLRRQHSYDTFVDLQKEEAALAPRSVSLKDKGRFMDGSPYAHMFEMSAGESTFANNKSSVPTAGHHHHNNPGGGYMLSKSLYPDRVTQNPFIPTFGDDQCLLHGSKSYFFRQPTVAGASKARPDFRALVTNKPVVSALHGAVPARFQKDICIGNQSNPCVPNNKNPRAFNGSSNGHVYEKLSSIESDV

Compound: O=C(O)c1cccc([C@H]2CCN[C@@H]2C(=O)O)c1 [Analog 1]
- KA IC50 [1]: 22 µM
- Ki [2]: 6 µM
- IC50 [3]: 51 µM

Compound: O=C(O)c1ccc([C@H]2CCN[C@@H]2C(=O)O)cc1 [Analog 2, (2S,3R)-3-(4-Carboxyphenyl)pyrrolidine-2-carboxylic Acid]
- Ki [4]: > 100 µM
- Ki [5]: > 100 µM
- functional character at GluN1/GluN2A-D [6]: antagonist
- KA IC50 [7]: >100 µM
- Ki [8]: > 100 µM
- IC50 [9]: > 100 µM
- Ki [10]: 8.5 µM
- NMDA, value in square brackets under Ki (pKi ± spread) [10]: [5.07 ± 0.04]
- IC50 ([10]; read-out: affinity for the NMDA receptors (IC50)): 8.5 µM

Compound: Conantokin G (GEEELQENQELIREKSN; ends and bridges not checked; UniProt P07231 81-97, looked up)
- preference for GluN1/GluN2B over GluN1/GluN2C and GluN1/2D [11]: 10 fold
- selectivity for GluN1/GluN2B over GluN1GluN2A [11]: 100 fold
